Data: patent US4517181A, “Mammalian PGRF” (The Salk Institute for Biological Studies, priority 1982, dated 1985)

How the values were obtained:
[1] = test system: cells of rat pituitary glands; assay: in vitro GH release, rat pituitary cell monolayer culture bioassay (ir GH by radioimmunoassay); type: cell-based; conditions: for GH secretion in vitro % of controls: Table I
Protocol: To determine the effectiveness of the peptides to promote the release of growth hormone, in vitro assays are carried out using synthetic PGRF (1-40) of Example II in side-by-side comparison with equimolar concentrations of the extracted and purified native PGRF (1-40) and of a GRF Reference Standard having a known effectiveness to promote the release of growth hormone from pituitary cells. The GRF Reference standard is described and defined in Brazeau, et al., Endocrinology, Vol. 110, A538(1982) and is an amount of a preparation of rat hypothalamic origin that produces a half-maximal response in terms of GH release in a pituitary cell monolayer bioassay. Cultures are used which include cells of rat pituitary glands removed some four to five days previously. Both cultures of a defined standard medium and cultures which are considered optimal for the secretion of growth hormone are used for the comparative testing, in the general manner described in Brazeau, et al. Regulatory Peptides, 1, 255, 1981. Incubation with the substance to be tested is carried out for 3 to 4 hours, and aliquots of the culture medium are removed and processed to measure their contents in inmunoreactive GH(ir GH) by a well-characterized radioimmunoassay.
The in vitro assays described in Example VII are repeated using Native PGRF(1-40) and Native PGRF(1-44) and the results are set forth in following Table III: […]

[2] = test system: pituitary growth hormone release (serum ir-GH); assay: in vivo release of pituitary growth hormone after one single intravenous injection in normal rats; set-up: species or system rat; conditions: for serum ir-GH: rat
Description: In addition to the in vitro tests for secretion of growth hormone, in vivo experiments were also run by injecting the synthetic peptide into normal male rats about 200 g. body weight, anesthetized with pentobarbital.

With `CC[C@H](C)[C@H](NC(=O)[C@H](C)NC(=O)[C@H](CC(=O)O)NC(=O)[C@H](C)NC(=O)[C@@H](N)Cc1ccc(O)cc1)C(=O)N[C@@H](Cc1ccccc1)C(=O)N[C@H](C(=O)N[C@@H](CC(N)=O)C(=O)N[C@@H](CO)C(=O)N[C@@H](Cc1ccc(O)cc1)C(=O)N[C@@H](CCCNC(=N)N)C(=O)N[C@@H](CCCCN)C(=O)N[C@H](C(=O)N[C@@H](CC(C)C)C(=O)NCC(=O)N[C@@H](CCC(N)=O)C(=O)N[C@@H](CC(C)C)C(=O)N[C@@H](CO)C(=O)N[C@@H](C)C(=O)N[C@@H](CCCNC(=N)N)C(=O)N[C@@H](CCCCN)C(=O)N[C@@H](CC(C)C)C(=O)N[C@@H](CC(C)C)C(=O)N[C@@H](CCC(N)=O)C(=O)N[C@@H](CC(=O)O)C(=O)N[C@H](C(=O)N[C@@H](CCSC)C(=O)N[C@@H](CO)C(=O)N[C@@H](CCCNC(=N)N)C(=O)N[C@@H](CCC(N)=O)C(=O)N[C@@H](CCC(N)=O)C(=O)NCC(=O)N[C@@H](CCC(=O)O)C(=O)N[C@@H](CO)C(=O)N[C@@H](CC(N)=O)C(=O)N[C@@H](CCC(N)=O)C(=O)N[C@@H](CCC(=O)O)C(=O)N[C@@H](CCCNC(=N)N)C(=O)NCC(=O)N[C@@H](C)C(=O)O)[C@@H](C)CC)C(C)C)[C@@H](C)O` [Synthetic PGRF (1-40), PGRF (1-40)] the ED50 ([1]; GH release in vitro, Example VII) was “about 113 picograms”, the “GH secretion in vitro % of controls” value ([1]; 10 fmoles) was 269 ± 20 % of controls and the “GH secretion in vitro % of controls” value ([1]; 100 fmoles) was 701 ± 6 % of controls. For the same compound, the “GH secretion in vitro % of controls” value ([1]; 1000 fmoles) was 990 ± 42 % of controls, the “biological activity compared with the native peptide” value ([1]; equimolar ratios, Example VII) was “has the full biological activity of the native peptide” and the “serum ir-GH” value ([2]; 0.01 μg i.v., +5 min) was 284 ± 20 nanograms/ml. For the same compound, the “serum ir-GH” value ([2]; 0.01 μg i.v., +10 min) was 238 ± 51 nanograms/ml, the “serum ir-GH” value ([2]; 0.01 μg i.v., +15 min) was 201 ± 47 nanograms/ml and the “serum ir-GH” value ([2]; 0.01 μg i.v., +30 min) was 261 ± 50 nanograms/ml. For the same compound, the “serum ir-GH” value ([2]; 0.01 μg i.v., +60 min) was 299 ± 25 nanograms/ml, the “serum ir-GH” value ([2]; 0.01 μg i.v., -1 min (before injection)) was 173 ± 23 nanograms/ml and the “serum ir-GH” value ([2]; 0.1 μg i.v., +5 min) was 694 ± 246 nanograms/ml. For the same compound, the “serum ir-GH” value ([2]; 0.1 μg i.v., +10 min) was 582 ± 290 nanograms/ml, the “serum ir-GH” value ([2]; 0.1 μg i.v., +15 min) was 758 ± 562 nanograms/ml and the “serum ir-GH” value ([2]; 0.1 μg i.v., +30 min) was 280 ± 70 nanograms/ml. The “serum ir-GH” value ([2]; 0.1 μg i.v., +60 min) was 424 ± 129 nanograms/ml, the “serum ir-GH” value ([2]; 0.1 μg i.v., -1 min (before injection)) was 276 ± 126 nanograms/ml and the “serum ir-GH” value ([2]; 1.0 μg i.v., +5 min) was 4551 ± 1825 nanograms/ml. The “serum ir-GH” value ([2]; 1.0 μg i.v., +10 min) was 1748 ± 564 nanograms/ml, the “serum ir-GH” value ([2]; 1.0 μg i.v., +15 min) was 730 ± 158 nanograms/ml and the “serum ir-GH” value ([2]; 1.0 μg i.v., +30 min) was 234 ± 53 nanograms/ml. The “serum ir-GH” value ([2]; 1.0 μg i.v., +60 min) was 267 ± 129 nanograms/ml, the “serum ir-GH” value ([2]; 1.0 μg i.v., -1 min (before injection)) was 142 ± 24 nanograms/ml and the “serum ir-GH” value ([2]; 10.0 μg i.v., +5 min) was 7077 ± 1943 nanograms/ml. The “serum ir-GH” value ([2]; 10.0 μg i.v., +10 min) was 4676 ± 585 nanograms/ml, the “serum ir-GH” value ([2]; 10.0 μg i.v., +15 min) was 2464 ± 378 nanograms/ml and the “serum ir-GH” value ([2]; 10.0 μg i.v., +30 min) was 616 ± 112 nanograms/ml. The “serum ir-GH” value ([2]; 10.0 μg i.v., +60 min) was 223 ± 26 nanograms/ml and the “serum ir-GH” value ([2]; 10.0 μg i.v., -1 min (before injection)) was 234 ± 76 nanograms/ml.
With `CC[C@H](C)[C@H](NC(=O)[C@H](C)NC(=O)[C@H](CC(=O)O)NC(=O)[C@H](C)NC(=O)[C@@H](N)Cc1ccc(O)cc1)C(=O)N[C@@H](Cc1ccccc1)C(=O)N[C@H](C(=O)N[C@@H](CC(N)=O)C(=O)N[C@@H](CO)C(=O)N[C@@H](Cc1ccc(O)cc1)C(=O)N[C@@H](CCCNC(=N)N)C(=O)N[C@@H](CCCCN)C(=O)N[C@H](C(=O)N[C@@H](CC(C)C)C(=O)NCC(=O)N[C@@H](CCC(N)=O)C(=O)N[C@@H](CC(C)C)C(=O)N[C@@H](CO)C(=O)N[C@@H](C)C(=O)N[C@@H](CCCNC(=N)N)C(=O)N[C@@H](CCCCN)C(=O)N[C@@H](CC(C)C)C(=O)N[C@@H](CC(C)C)C(=O)N[C@@H](CCC(N)=O)C(=O)N[C@@H](CC(=O)O)C(=O)N[C@H](C(=O)N[C@@H](CCSC)C(=O)N[C@@H](CO)C(=O)N[C@@H](CCCNC(=N)N)C(=O)N[C@@H](CCC(N)=O)C(=O)N[C@@H](CCC(N)=O)C(=O)NCC(=O)N[C@@H](CCC(=O)O)C(=O)N[C@@H](CO)C(=O)N[C@@H](CC(N)=O)C(=O)N[C@@H](CCC(N)=O)C(=O)N[C@@H](CCC(=O)O)C(=O)N[C@@H](CCCNC(=N)N)C(=O)NCC(=O)N[C@@H](C)C(=O)N[C@@H](CCCNC(=N)N)C(=O)N[C@@H](C)C(=O)N[C@@H](CCCNC(=N)N)C(=O)N[C@@H](CC(C)C)C(N)=O)[C@@H](C)CC)C(C)C)[C@@H](C)O` [synthetic PGRF(1-44)-amide, PGRF(1-44)-amide] the “potency compared with native PGRF(1-44) (further testing)” value [1] was “substantially the same potency as native PGRF(1-44)” and the “GH-releasing activity when injected in laboratory animals (rats)” value ([2]; compared with PGRF(1-40) in Table II) was “shows the same type of GH-releasing activity as PGRF(1-40)”.
For `CC[C@H](C)[C@H](NC(=O)[C@H](C)NC(=O)[C@H](CC(=O)O)NC(=O)[C@H](C)NC(=O)[C@@H](N)Cc1ccc(O)cc1)C(=O)N[C@@H](Cc1ccccc1)C(=O)N[C@H](C(=O)N[C@@H](CC(N)=O)C(=O)N[C@@H](CO)C(=O)N[C@@H](Cc1ccc(O)cc1)C(=O)N[C@@H](CCCNC(=N)N)C(=O)N[C@@H](CCCCN)C(=O)N[C@H](C(=O)N[C@@H](CC(C)C)C(=O)NCC(=O)N[C@@H](CCC(N)=O)C(=O)N[C@@H](CC(C)C)C(=O)N[C@@H](CO)C(=O)N[C@@H](C)C(=O)N[C@@H](CCCNC(=N)N)C(=O)N[C@@H](CCCCN)C(=O)N[C@@H](CC(C)C)C(=O)N[C@@H](CC(C)C)C(=O)N[C@@H](CCC(N)=O)C(=O)N[C@@H](CC(=O)O)C(=O)N[C@H](C(=O)N[C@@H](CCSC)C(=O)N[C@@H](CO)C(=O)N[C@@H](CCCNC(=N)N)C(=O)N[C@@H](CCC(N)=O)C(=O)N[C@@H](CCC(N)=O)C(=O)NCC(=O)N[C@@H](CCC(=O)O)C(=O)N[C@@H](CO)C(=O)N[C@@H](CC(N)=O)C(=O)N[C@@H](CCC(N)=O)C(=O)N[C@@H](CCC(=O)O)C(=O)N[C@@H](CCCNC(=N)N)C(=O)NCC(=O)N[C@@H](C)C(=O)N[C@@H](CCCNC(=N)N)C(=O)N[C@@H](C)C(=O)N[C@@H](CCCNC(=N)N)C(=O)N[C@@H](CC(C)C)C(=O)O)[C@@H](C)CC)C(C)C)[C@@H](C)O` [synthetic PGRF(1-44)-free acid, PGRF(1-44) free acid], the “potency compared with native PGRF(1-44) (further testing)” value [1] was “somewhat less potency than native PGRF(1-44)”.
